Among the data in US20240368163A1, “COMPOUNDS AND METHODS FOR MODULATING SPLICING” (REMIX THERAPEUTICS INC., priority 2021, published 2024) are IC50 values, retold here.

Format in all cases: cell-based, human
In test [1] the test system is Target C. As to the kind of experiment: HiBiT protein abundance assay, Target C. The conditions noted are these: Homo sapiens, K562, 24 h, Table 13B, modified K562 cells. The gist of the method:
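Knock-in HiBiT clones, 10000/well; 10-pt 3-fold titration, top 10 μM final; DMSO ≤0.25%; 24 h, 37 °C, 5% CO2. Lytic HiBiT luminescence readout. 4PL fit, IC50 = concentration giving 50% of untreated abundance.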
(In general: HiBiT is a short tag that completes a luciferase, so light tracks the accessible tagged protein.)

For test [2], the system named is Target C. Kind of test: Splicing RT-qPCR panel, Target C canonical junction (CJ) mRNA. The conditions noted are these: Homo sapiens, gene panel, CJ qPCR, protocol of Example 142; read-out: Target C IC50 (decrease in CJ mRNA levels). The gist of the method:
(§1)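 First, A673 cells adhered 24 h, while K562 cells were plated directly. Next, compounds were added as an 11-point 3-fold series from 10 uM for 24 h. Finally, lysates went to RT-qPCR, with 2^(−ΔΔCt) values converted to percentage response.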
A general note: In qPCR the cycle at which signal appears reflects the starting amount.

Test [3] has as its system MYB. Kind of test: Splicing RT-qPCR assay, MYB mRNA canonical junction (CJ) and alternative junction (AJ). The conditions noted are these: Homo sapiens, gene panel, CJ qPCR, protocol of Example 142; read-out: MYB IC50 (decrease in CJ mRNA levels). The gist of the method: as §1
Test [4] deals with HTT. As to the kind of experiment: Splicing RT-qPCR assay, HTT mRNA canonical junction (CJ) and alternative junction (AJ). Particulars: Homo sapiens, gene panel, CJ qPCR, protocol of Example 142; read-out: HTT IC50 (decrease in CJ mRNA levels). The gist of the method: as §1
The test system of test [5] is SMN2. Kind of test: Splicing RT-qPCR panel, SMN2 canonical junction (CJ) mRNA. Particulars: Homo sapiens, gene panel, CJ qPCR, protocol of Example 142; read-out: SMN2 IC50 (decrease in CJ mRNA levels). The gist of the method: as §1
For test [6], the system named is MYB. As to the kind of experiment: HiBiT protein abundance assay, MYB. Particulars: Homo sapiens, K562, 24 h, Table 13B, modified K562 cells. The gist of the method:
(§2)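 Luminescent readout from lytic HiBiT/LgBiT complementation reports endogenous tagged protein level in engineered K562 cells. Compounds dosed 24 h, top 10 μM final, 3-fold steps, 10 points. IC50 is the concentration giving 50% of untreated-control abundance, from 4-parameter logistic fit.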

The subject of test [7] is HTT. As to the kind of experiment: HiBiT protein abundance assay, HTT. Particulars: Homo sapiens, K562, 24 h, Table 13B, modified K562 cells. The gist of the method: as §2

As a reminder, the pIC50 is −log10 of the IC50, conventionally taken in molar units.

Each structure is given as a SMILES string. pIC50: −log10 of the molar value. Where only a bound is given, the exact number is not on record here.

Consider `CCOc1nc(-c2ccc(OC3CC4CC(F)(F)C(C3)N4)nn2)ccc1-c1cn[nH]c1` (centres unmarked) [Compound 970], for which the negative logarithm of the IC50 (pIC50) in test [1] was below 5.00; in test [2], below 5.00; in test [3], below 5.00; in test [4] it was below 5.00; in test [5] it was 5.00 to 6.00; in test [6], below 5.00. In test [7], this compound showed a pIC50 below 5.00.
For the compound `COc1nc(-c2ccc(OC3CC4CC(F)(F)C(C3)N4)nn2)ccc1C1C=CC(F)=C1` (centres unmarked) [Compound 971], the pIC50 in test [1], in test [2], in test [3], in test [4], in test [5] and in test [6] was 5.00 to 6.00 throughout. The pIC50 in test [7] is 5.00 to 6.00.
Turning to `COc1cc(-c2ccc(N3CCC(NC(C)(C)C)C3)nn2)ncc1-n1cccn1` (centres unmarked) [Compound 972], the pIC50 in test [1] is 5.00 to 6.00; in test [2], 5.00 to 6.00; in test [3], 5.00 to 6.00; in test [4] it was 6.00 to 7.00; in test [5], 6.00 to 7.00; in test [6] it was 5.00 to 6.00. In test [7], this compound gave a negative-log IC50 (pIC50) of 6.00 to 7.00.
As to `COc1nc(-c2ccc(N(C)[C@@H]3C[C@H]4CC[C@@H](C3)N4)cn2)ccc1-c1cn[nH]c1` [Compound 978], the negative logarithm of the IC50 (pIC50) in test [1] was below 5.00; in test [2] it was below 5.00; in test [3], below 5.00; in test [4] it was below 5.00; in test [5], below 5.00; in test [6], 5.00 to 6.00. Further, in test [7], the pIC50 is 5.00 to 6.00.
As to `COc1nc(-c2ccc(N(C)[C@@H]3C[C@H]4CC[C@@H](C3)N4)nc2)ccc1-c1cn[nH]c1` [Compound 979], the negative-log IC50 (pIC50) was above 7.00 in test [1]; 6.00 to 7.00 in test [2]; 6.00 to 7.00 in test [3]; above 7.00 in test [4]; above 7.00 in test [5]; 6.00 to 7.00 in test [6]. Moreover, the pIC50 in test [7] was above 7.00.
`COc1nc(-c2cnc(N(C)[C@@H]3C[C@H]4CC[C@@H](C3)N4)cn2)ccc1-c1cn[nH]c1` [Compound 980]: the negative logarithm of the IC50 (pIC50) in test [1] was 5.00 to 6.00; in test [2] it was 5.00 to 6.00; in test [3] it was 5.00 to 6.00; in test [4], 5.00 to 6.00; in test [5] it was below 5.00; in test [6], 5.00 to 6.00. The negative logarithm of the IC50 (pIC50) in test [7] was 5.00 to 6.00.
Regarding `COc1nc(-c2cnc(N(C)[C@@H]3C[C@H]4CC[C@@H](C3)N4)nc2)ccc1-c1cn[nH]c1` [Compound 981], the pIC50 was 6.00 to 7.00 in test [1]; 5.00 to 6.00 in test [2]; 5.00 to 6.00 in test [3]; 6.00 to 7.00 in test [4]; 6.00 to 7.00 in test [5]; 6.00 to 7.00 in test [6]. The compound also had a negative logarithm of the IC50 (pIC50) in test [7] above 7.00.
As to `COc1nc(-c2ccc(NC3CCNCC3)nc2)ccc1-c1cnn(C)c1` [Compound 986], the negative logarithm of the IC50 (pIC50) in test [1] is 5.00 to 6.00; in test [2], 5.00 to 6.00; in test [3], 5.00 to 6.00; in test [4], 5.00 to 6.00; in test [5] it was 6.00 to 7.00; in test [6] it was 5.00 to 6.00. This compound also gave a negative-log IC50 (pIC50) in test [7] of 6.00 to 7.00.
With `COc1nc(-c2ccc(NC3CCNCC3)nc2)ccc1-n1cccn1` [Compound 987], the pIC50 is 5.00 to 6.00 in test [1]; below 5.00 in test [2]; below 5.00 in test [3]; below 5.00 in test [4]; 5.00 to 6.00 in test [5]; 5.00 to 6.00 in test [6]. The same compound gave a pIC50 in test [7] below 5.00.
As to `COc1nc(-c2ccc(NC3CCNCC3)nc2)ccc1-c1cnn(C)n1` [Compound 988], the pIC50 in test [1] is 5.00 to 6.00; in test [2] it was below 5.00; in test [3], below 5.00; in test [4], 5.00 to 6.00; in test [5], 6.00 to 7.00; in test [6], 5.00 to 6.00. The pIC50 in test [7] was 5.00 to 6.00.
Consider `COc1nc(-c2ccc(OC3CC(C)(C)NC(C)(C)C3)nc2)ccc1-c1cn[nH]c1` [Compound 989], for which the pIC50 is 6.00 to 7.00 in test [1]; 5.00 to 6.00 in test [2]; 5.00 to 6.00 in test [3]; 6.00 to 7.00 in test [4]; 6.00 to 7.00 in test [5]; 5.00 to 6.00 in test [6]. Moreover, the negative logarithm of the IC50 (pIC50) in test [7] is 6.00 to 7.00.
Turning to `COc1nc(-c2ccc(OC3CC(C)(C)NC(C)(C)C3)nc2)ccc1-n1cccn1` [Compound 991], the pIC50 in test [1] was 5.00 to 6.00; in test [2], below 5.00; in test [3], below 5.00; in test [4], below 5.00; in test [5], below 5.00; in test [6], below 5.00. This compound also showed a pIC50 in test [7] of 5.00 to 6.00.
As to `COc1nc(-c2ccc(OC3CC(C)(C)NC(C)(C)C3)nc2)ccc1-c1cnn(C)n1` [Compound 992], the pIC50 in test [1] is 5.00 to 6.00; in test [2], below 5.00; in test [3] it was below 5.00; in test [4], 5.00 to 6.00; in test [5] it was 5.00 to 6.00; in test [6], 5.00 to 6.00. In test [7], this compound had a pIC50 of 6.00 to 7.00.
On to `COc1nc(-c2ccc(N(C)C3CC(C)(C)NC(C)(C)C3)nc2)ccc1-c1cn[nH]c1` [Compound 993], for which the negative-log IC50 (pIC50) in test [1] was 6.00 to 7.00; in test [2], 6.00 to 7.00; in test [3], 6.00 to 7.00; in test [4], above 7.00; in test [5] it was above 7.00; in test [6], 6.00 to 7.00. The same compound showed a pIC50 in test [7] above 7.00.
Take `COc1nc(-c2ccc(N(C)C3CC(C)(C)NC(C)(C)C3)nc2)ccc1-c1cnn(C)c1` [Compound 994]: the pIC50 in test [1] was 6.00 to 7.00; in test [2], 6.00 to 7.00; in test [3] it was 6.00 to 7.00; in test [4] it was 6.00 to 7.00; in test [5], 5.00 to 6.00; in test [6], 5.00 to 6.00. In test [7], this compound showed a negative logarithm of the IC50 (pIC50) of 6.00 to 7.00.
For the compound `COc1nc(-c2ccc(N(C)C3CC(C)(C)NC(C)(C)C3)nc2)ccc1-n1cccn1` [Compound 995], the negative-log IC50 (pIC50) in test [1] was 5.00 to 6.00; in test [2] it was below 5.00; in test [3], below 5.00; in test [4], 5.00 to 6.00; in test [5], 5.00 to 6.00; in test [6], 5.00 to 6.00. Also, the pIC50 in test [7] was 5.00 to 6.00.
`COc1nc(-c2ccc(N(C)C3CC(C)(C)NC(C)(C)C3)nc2)ccc1-c1cnn(C)n1` [Compound 996]: the pIC50 in test [1] was 6.00 to 7.00; in test [2] it was 5.00 to 6.00; in test [3], 5.00 to 6.00; in test [4], 6.00 to 7.00; in test [5] it was 6.00 to 7.00; in test [6] it was 5.00 to 6.00. The pIC50 in test [7] is 6.00 to 7.00.
In the case of `COc1nc(-c2ncc(N(C)[C@@H]3C[C@H]4CC[C@@H](C3)N4)cn2)ccc1-c1cn[nH]c1` [Compound 997], the pIC50 in test [1], in test [2], in test [3], in test [4], in test [5] and in test [6] was below 5.00 each time. In test [7], this compound showed a negative-log IC50 (pIC50) below 5.00.
On to `COc1nc(-c2ccc(N3CCC(NC4CC4)C3)nn2)ccc1-c1cn[nH]c1` (centres unmarked) [Compound 998], for which the pIC50 in test [1] is 5.00 to 6.00; in test [2], below 5.00; in test [3] it was below 5.00; in test [4], 6.00 to 7.00; in test [5], 6.00 to 7.00; in test [6], below 5.00. The pIC50 in test [7] was 6.00 to 7.00.
Take `COc1nc(-c2ccc(OC3CC(C)(C)NC(C)(C)C3)nn2)cnc1-c1cn[nH]c1` [Compound 999]: the negative-log IC50 (pIC50) in test [1] was below 5.00; in test [2] it was 5.00 to 6.00; in test [3] it was 5.00 to 6.00; in test [4], 5.00 to 6.00; in test [5], 6.00 to 7.00; in test [6], 5.00 to 6.00. In test [7], this compound gave a negative-log IC50 (pIC50) of 5.00 to 6.00.
